Results reported in ChEMBL document CHEMBL6127070, “Design, synthesis, and molecular dynamic simulations of some novel benzo[d]thiazoles with anti-virulence activity against Pseudomonas aeruginosa” (Eur J Med Chem, 2024).
≈ marks a conversion by molar mass, not a printed value. Calls of active or inactive are those of the source. The rule behind the calls is not given here.

How the values were obtained:
[1] = test system: Pseudomonas aeruginosa; test: Antimicrobial activity against Pseudomonas aeruginosa ATCC 27853 assessed as growth inhibition zone by agar diffusion method; assay type: functional
[2] = test system: Pseudomonas aeruginosa; test: Inhibition of biofilm formation in Pseudomonas aeruginosa at sub-MIC by crystal violet staining based analysis relative to control; assay type: functional
[3] = test system: Pseudomonas aeruginosa; test: Antivirulence activity in Pseudomonas aeruginosa assessed as inhibition of rhamnolipids production at sub-MIC by spectrophotometric method relative to control; assay type: functional
[4] = test system: Pseudomonas aeruginosa; test: Inhibition of biofilm formation in Pseudomonas aeruginosa assessed as absorbance by measuring OD at 570 nm at sub-MIC by crystal violet staining based analysis (reference value: 0.635 +/- 0.014); assay type: functional
[5] = test system: Bacillus subtilis; test: Antimicrobial activity against Bacillus subtilis ATCC 6633 assessed as growth inhibition zone by agar diffusion method; assay type: functional
[6] = test system: Escherichia coli; test: Antimicrobial activity against Escherichia coli ATCC 25922 assessed as growth inhibition zone by agar diffusion method; assay type: functional
[7] = biological target: T1, Transcriptional activator protein LasR (Pseudomonas aeruginosa (strain ATCC 15692 / PAO1 / 1C / PRS 101 / LMG12228), UniProt P25084); test: Inhibition of Pseudomonas aeruginosa LasR in Escherichia coli DH5 transfected with lacZ reporter and JN105 production plasmid incubated for 4 hrs by beta-galactosidase reporter based miller test
T1 sequence (P25084 whole entry): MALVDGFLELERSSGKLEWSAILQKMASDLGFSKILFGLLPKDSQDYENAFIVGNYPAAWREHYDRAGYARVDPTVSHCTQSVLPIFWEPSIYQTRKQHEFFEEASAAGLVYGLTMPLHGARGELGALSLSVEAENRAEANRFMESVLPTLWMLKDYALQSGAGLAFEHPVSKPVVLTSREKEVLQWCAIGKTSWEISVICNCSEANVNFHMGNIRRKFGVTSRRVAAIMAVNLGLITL

[8] = test system: Pseudomonas aeruginosa; test: Antibacterial activity against Pseudomonas aeruginosa assessed as effect on bacterial growth at 9.375 microg/ml incubated for 24 hrs by growth curve analysis; assay type: functional, organism-based; details: dose 9.375 µg/ml
[9] = test system: Klebsiella pneumoniae; test: Antimicrobial activity against Klebsiella pneumoniae ATCC 700603 assessed as growth inhibition zone by agar diffusion method; assay type: functional
[10] = test system: Candida albicans; test: Antimicrobial activity against Candida albicans ATCC 60193 assessed as growth inhibition zone by agar diffusion method; assay type: functional
[11] = test system: Pseudomonas aeruginosa; test: Antivirulence activity in Pseudomonas aeruginosa assessed as inhibition of pyocyanin production by measuring OD at […] at sub-MIC by chloroform-HCl extraction method relative to control; assay type: functional
[12] = test system: Pseudomonas aeruginosa; test: Antivirulence activity in Pseudomonas aeruginosa assessed as inhibition of pyocyanin production at sub-MIC by chloroform-HCl extraction method relative to control; assay type: functional
[13] = test system: Pseudomonas aeruginosa; test: Antibacterial activity against Pseudomonas aeruginosa by CLSI protocol based broth microdilution method; assay type: functional; details: for MIC: Pseudomonas aeruginosa
[14] = test system: Staphylococcus aureus; test: Antimicrobial activity against Staphylococcus aureus ATCC 43300 assessed as growth inhibition zone by agar diffusion method; assay type: functional
[15] = test system: Pseudomonas aeruginosa; test: Antibacterial activity against Pseudomonas aeruginosa assessed as effect on bacterial growth at 37.5 microg/ml incubated for 24 hrs by growth curve analysis; assay type: functional, organism-based; details: dose 37.5 µg/ml
[16] = test system: Pseudomonas aeruginosa; test: Antibacterial activity against Pseudomonas aeruginosa assessed as bacterial mortality relative to control; assay type: functional
[17] = test system: Pseudomonas aeruginosa; test: Antibacterial activity against Pseudomonas aeruginosa assessed as effect on bacterial growth at 18.75 microg/ml incubated for 24 hrs by growth curve analysis; assay type: functional, organism-based; details: dose 18.75 µg/ml
[18] = Inhibition of quorum sensing system in Pseudomonas aeruginosa PAO1 transfected with lasB-gfp reporter gene incubated for >=12 hrs by fluorescence based microplate reader analysis
[19] = test system: Pseudomonas aeruginosa; test: Inhibition of biofilm formation in Pseudomonas aeruginosa PAO1 at 50 uM incubated for 24 hrs by crystal violet staining based analysis relative to control; assay type: functional

With `Fc1ccc(-c2ccnc3c(-c4nc5ccccc5s4)cnn23)cc1` the “inhibition zone (IZ)” value [1] was 25 mm, the “inhibition (INH)” value [2] was 69.4% and the “inhibition (INH)” value [3] was 54.3%. For the same compound, the OD [4] was 0.194, the “inhibition zone (IZ)” value [5] was 25 mm and the “inhibition zone (IZ)” value [6] was 21 mm. The IC50 [7] was 1100 nM, the Activity [8] was “inactive” and the “inhibition zone (IZ)” value [9] was 26 mm. For the same compound, the “inhibition zone (IZ)” value [10] was 30 mm, the OD [11] was 0.136 and the “inhibition (INH)” value [12] was 69.4%. The SubMIC [13] was 9.375 µg/mL, the MIC [13] was 18.8 µg/mL (≈ 54.1 µM) and the “inhibition zone (IZ)” value [14] was 24 mm.

With `Nc1[nH]ncc1-c1nc2ccccc2s1` the “inhibition zone (IZ)” value [1] was 16 mm, the inhibition [2] was “inactive” and the Activity [15] was “inactive”. For the same compound, the inhibition [3] was “inactive”, the OD [4] was 0.612 and the “inhibition zone (IZ)” value [5] was 15 mm. The “inhibition zone (IZ)” value [6] was 16 mm, the “inhibition zone (IZ)” value [9] was 18 mm and the “inhibition zone (IZ)” value [10] was 17 mm. The OD [11] was 0.425, the “inhibition (INH)” value [12] was 4.5% and the SubMIC [13] was 37.5 µg/mL. For the same compound, the MIC [13] was 75 µg/mL (≈ 347 µM) and the “inhibition zone (IZ)” value [14] was 15 mm.

For `CC[C@H]1OC(=O)[C@H](C)[C@@H](O[C@H]2C[C@@](C)(OC)[C@@H](O)[C@H](C)O2)[C@H](C)[C@@H](O[C@@H]2O[C@H](C)C[C@H](N(C)C)[C@H]2O)[C@](C)(OC)C[C@@H](C)C(=O)[C@H](C)[C@@H](O)[C@]1(C)O` [CLARITHROMYCIN], the mortality [16] was 29.11%.

In the case of `CN1CCN(c2ccc(/C=C(\C#N)c3nc4ccccc4s3)cc2)CC1`, the “inhibition zone (IZ)” value [1] is reported as 26 mm, the “inhibition (INH)” value [2] is reported as 77% and the “inhibition (INH)” value [3] is reported as 58.5%. The OD [4] was 0.146, the “inhibition zone (IZ)” value [5] was 25 mm and the “inhibition zone (IZ)” value [6] was 26 mm. The IC50 [7] was 1370 nM, the Activity [8] was “inactive” and the “inhibition zone (IZ)” value [9] was 27 mm. The “inhibition zone (IZ)” value [10] was 30 mm, the OD [11] was 0.113 and the “inhibition (INH)” value [12] was 74.6%. For the same compound, the SubMIC [13] was 9.375 µg/mL, the MIC [13] was 18.8 µg/mL (≈ 52 µM) and the “inhibition zone (IZ)” value [14] was 28 mm.

With `Cc1cc(C)n2ncc(-c3nc4ccccc4s3)c2n1` the “inhibition zone (IZ)” value [1] was 17 mm, the inhibition [2] was “inactive” and the Activity [15] was “inactive”. The inhibition [3] was “inactive”, the OD [4] was 0.631 and the “inhibition zone (IZ)” value [5] was 15 mm. For the same compound, the “inhibition zone (IZ)” value [6] was 17 mm, the “inhibition zone (IZ)” value [9] was 19 mm and the “inhibition zone (IZ)” value [10] was 20 mm. For the same compound, the OD [11] was 0.407, the “inhibition (INH)” value [12] was 8.5% and the SubMIC [13] was 37.5 µg/mL. For the same compound, the MIC [13] was 75 µg/mL (≈ 268 µM) and the “inhibition zone (IZ)” value [14] was 18 mm.

In the case of `O=C(O)c1cn(C2CC2)c2cc(N3CCNCC3)c(F)cc2c1=O` [CIPROFLOXACIN], the mortality [16] is reported as 16.99%.

For `N#C/C(=C\c1ccc(N2CCOCC2)cc1)c1nc2ccccc2s1`, the “inhibition zone (IZ)” value [1] was 21 mm, the “inhibition (INH)” value [2] was 39.7% and the “inhibition (INH)” value [3] was 24.3%. The OD [4] was 0.383, the “inhibition zone (IZ)” value [5] was 19 mm and the “inhibition zone (IZ)” value [6] was 24 mm. For the same compound, the “inhibition zone (IZ)” value [9] was 20 mm, the Activity [17] was “inactive” and the “inhibition zone (IZ)” value [10] was 24 mm. The OD [11] was 0.289, the “inhibition (INH)” value [12] was 35.1% and the SubMIC [13] was 18.75 µg/mL. For the same compound, the MIC [13] was 37.5 µg/mL (≈ 108 µM) and the “inhibition zone (IZ)” value [14] was 23 mm.

`[O-][S+](Cc1ccc(Cl)cc1)c1nc2cc(Cl)ccc2o1` (stereo unspecified) showed an IC50 [18] of 2080 nM and an inhibition at 50 µM [19] of 46.1%.
